Assay results as given in paper PMC8480593, “Anti-influenza A virus activity and structure–activity relationship of a series of nitrobenzoxadiazole derivatives” (Journal of Enzyme Inhibition and Medicinal Chemistry, 2021).
Read-outs that look alike come from different tables or passages of the source.

How the values were obtained:
[1] = system: influenza virus A/Puerto Rico/8/34 H1N1 (PR8); assay: microbe, parasite or virus in culture; format: cell-based
[2] = system: influenza virus A/Puerto Rico/8/34 H1N1 (PR8); details: A549 cells, CC50 by Trypan Blue exclusion
[3] = system: influenza virus A/Puerto Rico/8/34 H1N1 (PR8); details: A549 cells; CC50 from Cell Tag in mock infected cells, IC50 by ICW
in vitro = details: human
[4] = system: influenza virus A/Puerto Rico/8/34 H1N1 (PR8); assay: microbe, parasite or virus in culture; details: H1N1|PR8, A549, read-out: IC50, HAU – A549
[5] = system: influenza virus A/Puerto Rico/8/34 H1N1 (PR8); assay: microbe, parasite or virus in culture; details: unidentified influenza virus, A549, read-out: IC50, ICW – A549
MDCK cells = assay: Cytotoxicity on MDCK cells (MTT and Trypan Blue exclusion); details: 1–30 µM, Toxic = toxic at all tested concentrations
[6] = unidentified influenza virus, MDCK, 24 h, read-out: IC50 (concentration required to inhibit viral replication of 50%), MDCK cells infected with PR8 (m.o.i. 0.001), HAU in supernatants 24 h p.i., Inactive = at maximum tested concentration (30 µM)
[7] = MDCK cells infected with PR8 (m.o.i. 0.001), HAU in supernatants 24 h p.i., Inactive = at maximum tested concentration (30 µM)

| Structure (SMILES) | IC50 [1, 6] [µM] | IC50 (concentration required to inhibit viral replication of 50%) [1, 7] | further results |
| --- | --- | --- | --- |
| O=[N+]([O-])c1ccc(SCCCCCCCCO)c2nonc12 [Compound 6] | > 30 | – | – |
| O=C(O)CCC(=O)OCCCCSc1ccc([N+](=O)[O-])c2nonc12 [Compound 9, 4–(4-((7-nitrobenzo[c][1,2,5]oxadiazol-4-yl)thio)butoxy)-4-oxobutanoic acid] | 17.1 ± 0.9 | – | IC50 (concentration required to inhibit viral replication of 50%) [1]: effective against IV; melting point: 90 to 93 °C |
| O=C(O)CCC(=O)OCCCCCCSc1ccc([N+](=O)[O-])c2nonc12 [Compound 10] | 22.2 ± 1.4 | – | – |
| O=C(O)CCC(=O)OCCOCCSc1ccc([N+](=O)[O-])c2nonc12 [Compound 11, 4–(2–(2-((7-nitrobenzo[c][1,2,5]oxadiazol-4-yl)thio)ethoxy)ethoxy)-4-oxobutanoic acid] | > 30 | – | IC50 (concentration required to inhibit viral replication of 50%) [1]: effective against IV; melting point: 74 to 76 °C |
| COC(=O)CCSc1ccc([N+](=O)[O-])c2nonc12 [Compound 12] | – | – | IC50 (concentration required to inhibit viral replication of 50%) [1]: effective against IV; SI (CC50/IC50 HAU – A549) [2]: 11; SI (CC50/IC50 ICW – A549) [3]: 5; CC50 at 24 h (in vitro): 54.5 µM; IC50 [4]: 5.1 ± 0.2 µM; IC50 [5]: 10 ± 0.5 µM |
| O=C(CCSc1ccc([N+](=O)[O-])c2nonc12)NCCO [Compound 14] | > 30 | Inactive^b | – |
| O=C1CCN(C(=O)CCSc2ccc([N+](=O)[O-])c3nonc23)CC1 [Compound 16] | – | – | Cytotoxicity (MDCK cells): Toxic^a |
| COC(=O)C(CSc1ccc([N+](=O)[O-])c2nonc12)NC(=O)OC(C)(C)C (stereo not shown) [Compound 17] | – | – | IC50 (concentration required to inhibit viral replication of 50%) [1]: effective against IV; SI (CC50/IC50 HAU – A549) [2]: 2; SI (CC50/IC50 ICW – A549) [3]: 3; IC50 [4]: 11.7 ± 1 µM; IC50 [5]: 9.6 ± 0.8 µM |
| CC(=O)N[C@@H](CSc1ccc([N+](=O)[O-])c2nonc12)C(=O)O [Compound 19, N-acetyl-S-(7-nitrobenzo[c][1,2,5]oxadiazol-4-yl)cysteine] | 24 ± 2.3 | – | IC50 (concentration required to inhibit viral replication of 50%) [1]: effective against IV; melting point: 166 to 168 °C |
| CC(C)(C)Sc1ccc([N+](=O)[O-])c2nonc12 [Compound 21] | > 30 | Inactive^b | – |
| O=[N+]([O-])c1ccc(Sc2ncccn2)c2nonc12 [Compound 22, 4-nitro-7-(pyrimidin-2-ylthio)benzo[c][1,2,5]oxadiazole] | – | – | melting point: 144 to 147 °C |
| O=[N+]([O-])c1ccc(Sc2nc3ccccc3[nH]2)c2nonc12 [Compound 23, 4-((1H-benzo[d]imidazol-2-yl)thio)-7-nitrobenzo[c][1,2,5]oxadiazole] | > 30 | Inactive^b | melting point: 206 to 208 °C |
| O=[N+]([O-])c1ccc(SCc2ccccc2)c2nonc12 [Compound 25] | < 10 | – | IC50 (concentration required to inhibit viral replication of 50%) [1]: effective against IV; IC50 ([1]; read-out: IC50 (concentration required to inhibit viral replication of 50%), MDCK cells infected with PR8 (m.o.i. 0.001), HAU in supernatants 24 h p.i., Inactive = at maximum tested concentration (30 µM)): 6.3 ± 0.5 µM; SI (CC50/IC50 HAU – A549) [2]: 6; SI (CC50/IC50 ICW – A549) [3]: 4; IC50 [4]: 1.9 ± 0.1 µM; IC50 [5]: 8.9 ± 0.6 µM |
| O=C(O)c1ccccc1Sc1ccc([N+](=O)[O-])c2nonc12 [Compound 27] | > 30 | Inactive^b | – |
| O=C(O)c1cccc(Sc2ccc([N+](=O)[O-])c3nonc23)c1 [Compound 28] | > 30 | Inactive^b | – |
| CCOC(=O)c1ccc(Sc2ccc([N+](=O)[O-])c3nonc23)cc1 [Compound 30] | > 30 | Inactive^b | – |
| NC(=O)c1ccc(Sc2ccc([N+](=O)[O-])c3nonc23)cc1 [Compound 31] | > 30 | Inactive^b | – |
| CN(C)C(=O)c1ccc(Sc2ccc([N+](=O)[O-])c3nonc23)cc1 [Compound 32] | > 30 | – | – |
| O=C(NO)c1ccc(Sc2ccc([N+](=O)[O-])c3nonc23)cc1 [Compound 33] | > 30 | Inactive^b | – |
| O=C(NCCO)c1ccc(Sc2ccc([N+](=O)[O-])c3nonc23)cc1 [Compound 37] | > 30 | Inactive^b | – |
| CN(C)CCNC(=O)c1ccc(Sc2ccc([N+](=O)[O-])c3nonc23)cc1 [Compound 38] | > 30 | Inactive^b | – |
| O=C(O)Cc1ccc(Sc2ccc([N+](=O)[O-])c3nonc23)cc1 [Compound 39] | > 30 | Inactive^b | – |
| O=C(O)CCc1ccc(Sc2ccc([N+](=O)[O-])c3nonc23)cc1 [Compound 40] | 18.3 ± 1.6 | – | IC50 (concentration required to inhibit viral replication of 50%) [1]: effective against IV |
| O=C(O)c1ccc(CSc2ccc([N+](=O)[O-])c3nonc23)cc1 [Compound 41] | 10.8 ± 0.6 | – | IC50 (concentration required to inhibit viral replication of 50%) [1]: effective against IV |
| CCOC(=O)c1ccc(CSc2ccc([N+](=O)[O-])c3nonc23)cc1 [Compound 42] | 17.2 ± 1.6 | – | – |
| O=[N+]([O-])c1ccc([S+]([O-])CCCCCCO)c2nonc12 (stereo not shown) [Compound 43] | > 30 | Inactive^b | – |
| O=[N+]([O-])c1ccc(S(=O)(=O)CCCCCCO)c2nonc12 [Compound 44] | > 30 | Inactive^b | – |
| O=[N+]([O-])c1ccc(NCCCCCCO)c2nonc12 [Compound 45] | > 30 | Inactive^b | Cytotoxicity (MDCK cells): NOT toxic |
